Literature values in patent publication US20250381239A1, “METHOD FOR IMPROVING SLEEP QUALITY OR INCREASING SLEEP DURATION AND METHOD FOR RELIEVING PSYCHOLOGICAL STRESS” (TOYO SHINYAKU CO., LTD., priority 2024, published 2025).

Columns and labels:
mice [1] = conditions: mice subjected only to psychological stress
mice [2] = conditions: water immersion restraint test

Structure (SMILES)	Effect on psychological stress ulcers (mice [1])	Effect on physical stress ulcers (mice [2])
CCN1CCCC1CNC(=O)c1cc(S(N)(=O)=O)ccc1OC (stereo not shown) [sulpiride]	effective	no effect
NC(N)=Nc1nc(CSCCC(N)=NS(N)(=O)=O)cs1 [famotidine]	no effect	effective
